Results reported in patent US5093337A, “Substituted derivatives of 20,21-dinoreburnamenine, their use as medicaments and the pharmaceutical compositions containing them” (Roussel Uclaf, priority 1987, dated 1992).

Key:
[1] = Test for hypobar anoxemia in a mouse (survival time); type: in vivo; settings: 10 mg/kg intraperitoneal, 60 minutes before the test; 600 mmHg depression; relative to control mice
Method: 3) Test for hypobar anoxemia in a mouse
This consists of measuring for a maximum duration of 3 minutes the survival time of mice placed in a 2 liter chamber in which a 600 mmHg depression is carried out. Mice deprived of food for 6 hours are used. The products are administered at a dose of 10 mg/kg by intraperitoneal route in a volume of 0.2 ml/10 g 60 minutes before the test.
The increase in survival time is noted, expressed as a percentage of the animals treated in relation to the control animals, submitted to the same conditions.

[2] = system: adrenergic alpha2 receptors; assay: Affinity for adrenergic alpha2 receptors (inhibition of specific 3H rauwolscine fixation, rat cortex); type: binding, rat (male; brain cortices); settings: from CD (phentolamine) and CX (product) inhibiting 50% of specific fixation of 3H rauwolscine 0.15 nM, 25° C., 45 minutes
Method: 1) Affinity for adrenergic alpha2 receptors:
10 cortices removed from the brains of male rats weighing on average 150 g are homogenized in 90 ml of 0.32M sucrose. After centrifuging 1,000 g of the homogenized mixture for 10 minutes at 0° C., the supernatant is centrifuged at 30,000 g for 10 minutes at 0°/+4° C. The deposit is put in suspension in 240 ml of buffer TrisHCl 50 mM pH 7.7, and centrifuged at 30,000 g for 15 minutes at 0°/+4° C. The new deposit obtained is put in suspension in 480 ml of buffer NaKPO4 pH 7.4 50 mM.
2 ml of suspension is then incubated for 45 minutes at 25° C. in the presence of ^3 H rauwolscine at a 0.15 nM concentration:
ii) with increasing concentrations of the product under test or,
iii) in order to determine the non-specific fixation,
with non-radioactive phentolamine at a 10^-5 M concentration.
The incubated suspensions are filtered on Whatman GF/C and the filters are washed three times with 5 ml of buffer NaKPO4 pH 7.4 at 0° C. The radioactivity of the filters is measured by liquid scintillation.
The affinity of the product tested for adrenergic alpha2 receptors is given in relation to the phentolamine as a reference product.
CD=concentration of phentolamine inhibiting 50% of the specific fixation of ^3 H rauwolscine;
CX=concentration of the product under test inhibiting 50% of the specific fixation of ^3 H rauwolscine.
The relative affinity is given by the relation: [formula]

[3] = Asphyxic anoxemia (latency time for disappearance of the ECoG); type: in vivo, Sprague Dawley (Charles River) male rat; settings: 10 mg/kg intravenous, 3 minutes before asphyxia; rat; read-out: % of variation of the latency time for disappearance of the ECoG after asphyxia
Method: The test is carried out using a Sprague Dawley (Charles River) male rat anaesthetized with ethyl ether, immobilized (tube curare 1 mg/kg I.V.) and artificially ventilated with air. The electrocorticogram (ECoG) and the arterial pressure are recorded. The rectal temperature is maintained at around 36° C. and the level of carbon dioxide in the blood is maintained between 35 and 40 torr. The products are administered at a dose of 10 mg/kg by intravenous route in a volume of 1 ml/kg 3 minutes before asphyxia obtained by stopping the artificial respiration. The latency time for the disappearance of the ECoG is measured.

[4] = Anti-amnesic effect in a passive avoidance (electric shock treatment amnesia); type: in vivo; settings: 2 mg/kg by oral route; rat
Description: Anti-Amnesic Effect in a Passive Avoidance
Rats are placed individually in the lighted compartment of a box having two compartments, the other one being dark. They take refuge immediately in the dark compartment and upon their entry the rats receive an electric shock (1 mA/5 sec) from the grated floor. […] In the second group, the electric shock is immediately followed by the application of an amnesic electric shock treatment (60 mA, 0.6 ms, 0.6 s) (electric shock treatment control group). The third group is identical to the second, but the electric shock treatment is immediately followed by the administration of the compound under test (treated group). Twenty-four hours later, the animals are replaced in the lighted compartment of the box and the latency time of entry into the dark compartment is measured (up to 300 sec. maximum). For the controls, this time is close to 300 sec. The electric shock treatment controls on the other hand move into the dark compartment much more rapidly (amnesic effect).

[5] = Test for anti-depressive activity (forced swimming, duration of immobility); type: in vivo, Sprague Dawley rats; settings: ip, 5 min; i.p. 24, 5 and half an hour before the test; immobility over 5 minutes; rat; read-out: AD50 (the source's name)
Method: 5) Test for anti-depressive activity
The tests are carried out on groups of 5 Sprague Dawley rats. The unaffected animals are placed for 15 minutes in a vertical cylinder of plexiglass (diameter: 18 cm, height: 40 cm) containing water at 25° C. at a height of 15 cm (initial swimming test). They are then dried for 15 minutes in a chamber heated to 32° C.; 24 hours later, they are replaced in the cylinder, filled with water, and the total duration of the periods of immobility is measured over 5 minutes.
The compound is administered i.p. successively 24, 5 and half an hour before the test. The first administration takes place immediately after the initial swimming test, just before the animals are replaced in their breeding box.
The averages of the treated groups are compared with those of the control group using Dunnett's test.

[6] = Test for spontaneous alternation after septal cholinergic injury; type: in vivo; settings: range of doses from 1 to 10 mg/kg i.p., 30 minutes before each session; rat
Description: 4) Test for spontaneous alternation after septal cholinergic injury
The behaviour of spontaneous alternation is an essential characteristic of the behavioural performance of the rat, which, put in a situation of choice between a familiar stimulus and a new stimulus, will choose the latter. Thus, in the case of a labyrinth Y, the animal will preferably choose an arm which has not yet been explored as opposed to an arm that he has just visited (spontaneous alternation). This faculty of discrimination between the "familiar" and the "new" implies the coming into play of a form of memory, the Short Term Memory or Work Memory. The performances of spontaneous alternation allow therefore an evaluation of the capacity of this type of memory.
The method used consists of creating a mnesic deficit in the rat, by lesion of the septo-hippocampic cholinergic system, and of researching whether the product under test is capable of reversing this deficit. In the present case, this deficit is evaluated in a spontaneous alternation behaviour; the lesioned animal has alternation performances of about 50%, because it carries out its choices by chance.
Each experiment comprises a control-vehicle group, a lesioned-vehicle group and one or two lesioned groups receiving the product under test. […]

| RAL (relative affinity, in relation to phentolamine as reference product) [2] | Structure (SMILES) | change in vivo at 10 mg/kg [3] [%] | further results |
| --- | --- | --- | --- |
| – | O=[N+]([O-])c1cccc2c1c1c3n2C(O)CC2CCCN(CC1)C32 (racemic) [Example 40, [(±) (16alpha)]-9-nitro-14,15dihydro-20,21-dinoreburnamenin-14-ol] | – | % of increase in survival time [1]: 22% |
| 110 | Clc1ccc2c3c4n(c2c1)C=C[C@H]1CCCN(CC3)[C@H]41 (relative stereo) [Example 2, [(±) (16alpha)]-11-chloro-20,21-dinoreburnamenine] | 43 | – |
| 35 | O[C@@H]1C[C@H]2CCCN3CCc4c(n1c1ccc(Cl)cc41)[C@H]23 (relative stereo) [Example 4, [(±) (14alpha, 16alpha)]-10-chloro-14,15-dihydro-20,21-dinoreburnamenin-14-ol] | – | – |
| 55 | Clc1ccc2c(c1)c1c3n2C=C[C@H]2CCCN(CC1)[C@H]32 (relative stereo) [Example 5, [(±) 16alpha]-10-chloro-20,21-dinoreburnamenine] | 26 | – |
| – | Cc1ccc2c3c4n(c2c1)[C@H](O)C[C@H]1CCCN(CC3)[C@H]41 (relative stereo) [Example 8, [(±) (14alpha, 16alpha)]-14,15-dihydro-11-methyl-20,21-dinoreburnamenin-14-ol] | 37 | – |
| 160 | Cc1ccc2c3c4n(c2c1)C=C[C@H]1CCCN(CC3)[C@H]41 (relative stereo) [Example 10, [(±) (16alpha)]-11-methyl-20,21-dinoreburnamenine] | 47 | reversal of the effect of an electric shock treatment (passive avoidance) [4]: reverses the anti-amnesic effect of an electric shock treatment; ED50 [5]: 13 mg/kg; reversal of the mnesic deficit caused by the septal cholinergic lesion (spontaneous alternation) [6]: reverses the mnesic deficit caused by the septal cholinergic lesion |
| 39 | Cc1ccc2c3c4n(c2c1)CC[C@H]1CCCN(CC3)[C@H]41 (relative stereo) [Example 12, [(±) (16alpha)]-14,15-dihydro-11-methyl-20,21-dinor-eburnamenine] | 18 | – |
| 136 | Cc1ccc2c(c1)c1c3n2C=C[C@H]2CCCN(CC1)[C@H]32 (relative stereo) [Example 16, [(±) (16alpha)]-10-methyl-20,21-dinoreburnamenine] | 22 | – |
| 39 | Cc1ccc2c(c1)c1c3n2CC[C@H]2CCCN(CC1)[C@H]32 (relative stereo) [Example 18, [(±) (16alpha)]-14,15-dihydro-10-methyl-20,21-dinoreburnamenine] | – | – |
| – | COc1ccc2c3c4n(c2c1)[C@@H](O)C[C@H]1CCCN(CC3)[C@H]41 (relative stereo) [Example 21, [(±) (14beta, 16alpha)]-14,15-dihydro-11-methoxy-20,21-dinoreburnamenin-14-ol] | 30 | – |
| – | COc1ccc2c3c4n(c2c1)[C@H](O)C[C@H]1CCCN(CC3)[C@H]41 (relative stereo) [Example 22, [(±) (14alpha, 16alpha)]-14,15-dihydro-11-methoxy-20,21-dinoreburnamenin-14-ol] | 18 | – |
| – | COc1ccc2c3c4n(c2c1)C=C[C@H]1CCCN(CC3)[C@H]41 (relative stereo) [Example 24, [(±) 16alpha]-11-methoxy-20,21-norburnamenine] | 35 | – |
| – | COc1ccc2c3c4n(c2c1)CC[C@H]1CCCN(CC3)[C@H]41 (relative stereo) [Example 25, [(±) (16alpha)]-14,15-dihydro-11-methoxy-20,21-dinoreburnamenine] | 20 | – |
| – | COc1ccc2c(c1)c1c3n2[C@H](O)C[C@H]2CCCN(CC1)[C@H]32 (relative stereo) [Example 28, [(±) (14alpha, 16alpha)]-14,15-dihydro-10-methoxy-20,21-dinoreburnamenin-14-ol] | 35 | – |
| – | COc1ccc2c(c1)c1c3n2C=C[C@H]2CCCN(CC1)[C@H]32 (relative stereo) [Example 29, [(±) (16alpha)]-10-methoxy-20,21-dinoreburnamenine] | 25 | – |
| – | O=[N+]([O-])c1ccc2c3c4n(c2c1)C=C[C@H]1CCCN(CC3)[C@H]41 (relative stereo) [Example 39, [(±) (16alpha)]-11-nitro-20,21-dinoreburnamenine] | – | % of increase in survival time [1]: 14% |
| – | O=[N+]([O-])c1cccc2c1c1c3n2C=C[C@H]2CCCN(CC1)[C@H]32 (relative stereo) [Example 41, [(±) (16alpha)]-9-nitro-20,21-dinoreburnamenine] | – | % of increase in survival time [1]: 13% |
